# Data taken from PMC7003846, “Effects of the ventilatory stimulant, doxapram on human TASK‐3 (KCNK9, K2P9.1) channels and TASK‐1 (KCNK3, K2P3.1) channels” (Acta Physiologica (Oxford, England), 2019).
# Where two headings read alike, the source gives them in different places.
# Key:
# [1] = target: T1, human TASK-3 (Homo sapiens, UniProt Q9NPC2); experiment: Whole-cell patch clamp on tsA201 cells expressing cloned human TASK-3; type: cell-based; conditions: for inhibition of human TASK-3 current: acute application
# T1 construct: expressed in transfected cells; host or cells: tsA201 (modified HEK293), transient transfection, pcDNA3.1+
# T1 sequence (Q9NPC2 whole entry): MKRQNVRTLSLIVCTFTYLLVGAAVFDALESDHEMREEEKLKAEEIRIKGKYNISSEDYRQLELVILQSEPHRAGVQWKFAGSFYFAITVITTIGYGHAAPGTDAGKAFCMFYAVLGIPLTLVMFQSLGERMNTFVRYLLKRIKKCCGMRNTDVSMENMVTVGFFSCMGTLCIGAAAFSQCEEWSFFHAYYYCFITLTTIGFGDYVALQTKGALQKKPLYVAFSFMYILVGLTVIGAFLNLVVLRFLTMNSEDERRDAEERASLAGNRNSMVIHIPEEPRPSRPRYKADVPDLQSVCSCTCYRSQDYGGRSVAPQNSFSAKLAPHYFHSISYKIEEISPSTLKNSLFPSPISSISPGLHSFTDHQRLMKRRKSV
# Procedure: (§1) Murine (mur) wild‐type (WT) TASK‐1 (KCNK3, Genbank^TM DQ185133) and WT murTASK‐3 (KCNK9, Genbank^TM AH009585.2) cDNA were cloned into pCS2^+ vector and were a kind gift from William Wisden (Imperial College, UK). Human WT TASK‐1 (Genbank^TM AF006823.1), WT TASK‐3 (Genbank^TM AF212829) and WT TASK‐2 (KCNK5, Genbank^TM AF084830.1) cDNA’s, were cloned into pcDNA3.1^+ vector (Invitrogen) and were a kind gift from Helen Meadows (GlaxoSmithKline).
# (§2) All experiments were performed using a modified human embryonic kidney 293 cell line, tsA201 (ECACC; Sigma‐Aldrich), prepared and maintained as previously described.54
# (§3) For the electrophysiological experiments, cells were transiently transfected using a modified calcium phosphate protocol, following a process as previously described.54 Vectors cloned with the gene of interest and a similar vector encoding the cDNA for GFP were added to each well at a concentration of 0.5 µg per well, with the exception being for murTASK‐3, where 0.125 µg per well was used.
# (§4) Currents were recorded from tsA201 cells transiently transfected with the channel of interest using whole‐cell patch clamp in a voltage clamp configuration and a step‐ramp voltage protocol as previously described.54 Briefly, all experiments were conducted at room temperature (20‐24°C) using an external solution composed of 145 mM of NaCl, 2.5 mM of KCL, 3 mM of MgCl2, 1 mM of CaCl2 and 10 mM of HEPES (pH 7.4, using NaOH) and an intracellular pipette solution composed of 150 mM of KCL, 3 mM of MgCl2, 5 mM of EGTA and 10 mM of HEPES (pH adjusted to 7.4 with KOH). External solution and modulatory compounds were superfused at a rate of 4‐5 mL min^−1. Currents were recorded using an Axopatch 1D patch clamp amplifier (Molecular Devices), filtered at 0.3 kHz, digitized at 1 kHz.
# (§5) For analysis of outward current, we measured the current difference between the −80 and −40 mV. The current‐voltage graphs were obtained from the ramp change in voltage between −120 and +20 mV. For each cell, the current amplitude (pA) was normalized to the cell capacitance (pF). The currents obtained were analysed using pCLAMP 10.2 software (Molecular Devices), Microsoft Excel and GraphPad Prism 6 or 7 software. Data were expressed as the mean ± 95% Confidence Intervals (CI), and n represents the number of individual cells. For EC50 calculations, concentration‐response curves were fitted using the Hill equation. Statistical analysis used were one‐way ANOVA with a post‐hoc Dunnett's test or an unpaired/paired Student's t test. Data were considered statistically different if P < .05. The data and statistical analysis comply with the recommendations on experimental design and analysis in pharmacology.55
# [2] = target: T2, TASK-3_L122D (Homo sapiens, UniProt Q9NPC2, L122D); experiment: Whole-cell patch clamp, human TASK-3 pore mutant L122D; type: cell-based; conditions: 100 µM
# T2 construct: expressed in transfected cells; host or cells: tsA201 (modified HEK293), transient transfection
# T2 sequence (Q9NPC2 whole entry L122D): as the sequence (Q9NPC2 whole entry) above, with L122D counted along it
# Text: as §1
# Point mutations (L122D, G236D, L239D, V242D or a stop codon) were introduced by site‐directed mutagenesis into TASK‐3 cDNA using the Quikchange kit (Stratagene) as previously described.54 […]
# as §4, with “External solution and modulatory compounds were superfused at a rate of 4‐5 mL min^−1.” left out, “kHz. […]” for “kHz.”
# [3] = target: T3, human TASK-1 (Homo sapiens, UniProt O14649); experiment: Whole-cell patch clamp on tsA201 cells expressing cloned human TASK-1; type: cell-based; conditions: for inhibition of human TASK-1 current: acute application
# T3 construct: expressed in transfected cells; host or cells: tsA201 (modified HEK293), transient transfection, pcDNA3.1+
# T3 sequence (O14649 whole entry): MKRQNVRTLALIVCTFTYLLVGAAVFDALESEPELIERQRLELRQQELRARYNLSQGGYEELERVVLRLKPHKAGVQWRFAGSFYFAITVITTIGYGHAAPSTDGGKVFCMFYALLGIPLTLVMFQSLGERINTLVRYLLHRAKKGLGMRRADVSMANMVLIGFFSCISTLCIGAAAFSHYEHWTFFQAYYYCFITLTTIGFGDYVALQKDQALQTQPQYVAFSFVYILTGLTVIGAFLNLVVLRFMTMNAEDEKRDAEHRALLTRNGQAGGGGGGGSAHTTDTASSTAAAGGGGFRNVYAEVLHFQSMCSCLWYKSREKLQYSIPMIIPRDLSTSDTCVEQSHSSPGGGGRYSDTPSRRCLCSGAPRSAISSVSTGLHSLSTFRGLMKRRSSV
# Procedure: as §1, §2, §3, §4, §5
# [4] = target: T4, murTASK-1 (Mus musculus, UniProt O35111); experiment: Whole-cell patch clamp on tsA201 cells expressing cloned mouse TASK-1; type: cell-based; conditions: 10 µM, acute application
# T4 construct: expressed in transfected cells; host or cells: tsA201 (modified HEK293), transient transfection, pCS2+
# T4 sequence (O35111 whole entry): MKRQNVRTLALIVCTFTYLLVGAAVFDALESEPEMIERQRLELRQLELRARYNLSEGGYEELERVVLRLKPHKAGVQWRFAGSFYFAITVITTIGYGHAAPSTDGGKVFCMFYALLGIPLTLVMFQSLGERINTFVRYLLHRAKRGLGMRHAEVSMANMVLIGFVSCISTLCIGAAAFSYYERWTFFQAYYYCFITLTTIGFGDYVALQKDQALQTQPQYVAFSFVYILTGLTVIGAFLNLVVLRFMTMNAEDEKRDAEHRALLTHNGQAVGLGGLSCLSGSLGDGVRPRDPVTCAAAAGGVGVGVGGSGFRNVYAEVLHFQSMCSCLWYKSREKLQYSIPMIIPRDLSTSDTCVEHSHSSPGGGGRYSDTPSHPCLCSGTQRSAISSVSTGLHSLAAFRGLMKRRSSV
# Procedure: as §1, §2, §3, §4, §5
# [5] = target: T5, murTASK-3 (Mus musculus, UniProt Q3LS21); experiment: Whole-cell patch clamp on tsA201 cells expressing cloned mouse TASK-3; type: cell-based; conditions: 10 µM, acute application
# T5 construct: expressed in transfected cells; host or cells: tsA201 (modified HEK293), transient transfection, pCS2+
# T5 sequence (Q3LS21 whole entry): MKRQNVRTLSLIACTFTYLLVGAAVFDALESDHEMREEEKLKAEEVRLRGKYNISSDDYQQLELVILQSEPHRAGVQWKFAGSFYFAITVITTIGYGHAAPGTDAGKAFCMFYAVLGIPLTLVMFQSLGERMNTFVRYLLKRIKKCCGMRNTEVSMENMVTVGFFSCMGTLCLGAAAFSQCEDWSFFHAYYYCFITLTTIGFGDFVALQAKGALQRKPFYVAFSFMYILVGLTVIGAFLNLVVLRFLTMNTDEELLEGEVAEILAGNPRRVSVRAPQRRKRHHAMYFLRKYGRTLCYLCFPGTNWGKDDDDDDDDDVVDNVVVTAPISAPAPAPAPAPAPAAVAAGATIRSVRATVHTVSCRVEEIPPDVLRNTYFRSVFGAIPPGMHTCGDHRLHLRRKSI
# Procedure: as §1, §2, §3, §4, §5
# [6] = opioid challenged rats, intravenous; cited from earlier work
# [7] = opioid challenged cynomolgus monkeys, intravenous; cited from earlier work
Compound,"inhibition of human TASK-3 current ([1]; 100 µM, WT)",inhibition of TASK-3_L122D [2],inhibition of human TASK-1 current ([3]; 1 µM),inhibition of human TASK-1 current ([3]; 3 µM),inhibition of human TASK-1 current ([3]; 10 µM),"EC50 ([3]; tsA201 cells, whole-cell patch clamp, room temperature, read-out: EC50, inhibition of human TASK-1 current)",inhibition of human TASK-3 current ([1]; 1 µM),inhibition of human TASK-3 current ([1]; 3 µM),"inhibition of human TASK-3 current ([1]; 10 µM, WT)","EC50 ([1]; tsA201 cells, whole-cell patch clamp, room temperature, read-out: EC50, inhibition of human TASK-3 current)",current inhibition of murTASK-1 [4],current inhibition of murTASK-3 [5],effect on minute volume [6],effect on minute volume [7]
"[Cl-].[Cl-].[Zn+2] [zinc, Zinc Chloride]",94%,87%,–,–,–,–,–,–,–,–,–,–,–,–
CCN1CC(CCN2CCOCC2)C(c2ccccc2)(c2ccccc2)C1=O (centres unmarked) [GAL‐054],–,–,45%,54%,75%,~1600 nM,43%,66%,79%,~1400 nM,63%,33%,dose‐dependently increased minute volume,dose‐dependently increased minute volume
